Like-named read-outs stand apart in the source and are kept apart here. Where a SMILES comes first, the peptide text is derived from it. Bridges are numbered along the chain shown (N, C = ends). [ ]: non-standard residue; d: D form. The star is where a group is joined. Ileψ(thiazoline)Cys = CC[C@H](C)[C@H](N)C1=N[C@H](C(=O)*)CS1; dOrn = NCCC[C@@H](N)C(=O)O
How the values were obtained:
[1] = tested on: cellular dehydrogenase activity
nuOXPHOS transcripts = type: cell-based, mouse
reactive oxygen species = type: cell-based, mouse
OXPHOS gene expression = type: cell-based, mouse
[2] = tested on: mitochondrial membrane potential; type: cell-based, mouse
mtOXPHOS transcripts = type: cell-based, mouse
cytochrome c = type: cell-based, mouse
[3] = 20 μM, composite Z-score vs DMSO
[4] = composite Z-score vs mock-treated (DMSO) wells, concentration of each compound in μM
[5] = 15.02 μM, composite Z-score vs DMSO
[6] = composite Z-score vs mock-treated (DMSO) wells, Conc 20 μM
[7] = composite Z-score vs DMSO, Conc 20 μM
[8] = normalized composite Z-score vs mock-treated (DMSO) wells, Conc 20 μM
[9] = composite Z-score vs DMSO, Conc 10.62 μM
[10] = composite Z-score vs DMSO wells, Conc 20 μM

Structure (SMILES) | MTT [1, 3] | nucOX (nuOXPHOS transcripts; [3]) | ROS (reactive oxygen species; [3]) | GE-HTS (OXPHOS gene expression; [3]) | Viability (C2C12 myotubes; [3]) | ΔΨm [2, 3] | mitoOX (mtOXPHOS transcripts; [3]) | cyt c (cytochrome c; [3]) | MTT [1, 7] | nucOX (nuOXPHOS transcripts; [7]) | ROS (reactive oxygen species; [7]) | GE-HTS (OXPHOS gene expression; [7]) | Viability (C2C12 myotubes; [7]) | ΔΨm [2, 7] | mitoOX (mtOXPHOS transcripts; [7]) | cyt c (cytochrome c; [7]) | further results
CC[C@H](C)[C@H](N)C1=N[C@H](C(=O)N[C@@H](CC(C)C)C(=O)N[C@H](CCC(=O)O)C(=O)N[C@H](C(=O)N[C@H]2CCCCNC(=O)[C@H](CC(N)=O)NC(=O)[C@@H](CC(=O)O)NC(=O)[C@H](Cc3cnc[nH]3)NC(=O)[C@@H](Cc3ccccc3)NC(=O)[C@H]([C@@H](C)CC)NC(=O)[C@@H](CCCN)NC2=O)[C@@H](C)CC)CS1 [bacitracin] ({Ileψ(thiazoline)Cys}-L[dE]IK[dOrn]I[dF]H[dD]N; lactam 4-C) | −0.826 | 1.374 | 1.177 | 1.271 | −0.312 | −0.113 | 0.798 | 0.305 | – | – | – | – | – | – | – | – | MTT [1, 4]: −0.310; nucOX (nuOXPHOS transcripts; [4]): −0.736; ROS (reactive oxygen species; [4]): 0.105; GE-HTS (OXPHOS gene expression; [4]): −0.592; Viability (C2C12 myotubes; [4]): −0.938; ΔΨm [2, 4]: −0.214; mitoOX (mtOXPHOS transcripts; [4]): −0.189; cyt c (cytochrome c; [4]): −0.806
COc1ccc([C@H]2COc3c(ccc(O)c3OC)C2)c(OC)c1O [(−)-duartin] | – | – | – | – | – | – | – | – | – | – | – | – | – | – | – | – | MTT [1, 4]: −0.571; nucOX (nuOXPHOS transcripts; [4]): −0.331; ROS (reactive oxygen species; [4]): 0.900; GE-HTS (OXPHOS gene expression; [4]): −0.048; Viability (C2C12 myotubes; [4]): 1.175; ΔΨm [2, 4]: 0.392; mitoOX (mtOXPHOS transcripts; [4]): 0.466; cyt c (cytochrome c; [4]): −0.472
C/C=C(/C(=C/C)c1ccc(O)cc1)c1ccc(O)cc1 [dienestrol] | −0.326 | −0.251 | −0.260 | −0.280 | 0.290 | 0.129 | −0.222 | −0.653 | – | – | – | – | – | – | – | – | MTT [1, 5]: −0.652; nucOX (nuOXPHOS transcripts; [5]): −0.191; ROS (reactive oxygen species; [5]): −0.210; GE-HTS (OXPHOS gene expression; [5]): 0.033; Viability (C2C12 myotubes; [5]): 0.829; ΔΨm [2, 5]: −0.205; mitoOX (mtOXPHOS transcripts; [5]): 0.481; cyt c (cytochrome c; [5]): 0.894
COC(=O)[C@@]1(C)CCC[C@]2(C)c3ccc(O)c(C(C)C)c3CCC12 (stereo partly shown) [totarol-19-carboxylic acid, methyl ester] | – | – | – | – | – | – | – | – | – | – | – | – | – | – | – | – | MTT [1, 6]: 1.019; nucOX (nuOXPHOS transcripts; [6]): −0.005; ROS (reactive oxygen species; [6]): 1.290; GE-HTS (OXPHOS gene expression; [6]): −0.323; Viability (C2C12 myotubes; [6]): −0.739; ΔΨm [2, 6]: −0.409; mitoOX (mtOXPHOS transcripts; [6]): −0.853; cyt c (cytochrome c; [6]): 0.085
CCCC(=O)O[C@]1(C(=O)CO)CC[C@H]2[C@@H]3CCC4=CC(=O)CC[C@]4(C)[C@H]3[C@@H](O)C[C@@]21C [hydrocortisone butyrate] | −0.932 | 0.514 | 1.234 | 0.666 | −1.654 | −0.808 | 0.916 | −0.064 | – | – | – | – | – | – | – | – | –
CC(C)C[C@H](N)C(=O)N[C@@H](C)C(=O)O [L-leucyl-L-alanine] (H-Leu-Ala-OH) | – | – | – | – | – | – | – | – | −0.320 | 0.465 | 0.301 | 0.365 | −0.600 | −0.307 | 0.093 | −0.861 | –
C#CCCCCCCCCCCCC(O)CC(O)CO (stereo not shown) [avocadyne] | – | – | – | – | – | – | – | – | −0.646 | −1.019 | 0.611 | −1.062 | −0.546 | −0.029 | −0.897 | −0.049 | MTT [1, 8]: −0.369; nucOX (nuOXPHOS transcripts; [8]): 0.457; ROS (reactive oxygen species; [8]): 0.322; GE-HTS (OXPHOS gene expression; [8]): 0.405; Viability (C2C12 myotubes; [8]): 0.816; ΔΨm [2, 8]: −0.266; mitoOX (mtOXPHOS transcripts; [8]): 0.242; cyt c (cytochrome c; [8]): 0.738
Oc1ncnc2[nH]ncc12 [allopurinol] | −1.611 | −0.849 | 1.448 | −0.869 | 0.376 | −0.204 | −0.798 | −0.105 | – | – | – | – | – | – | – | – | –
O=C(c1ccccc1)c1ccc2n1CCC2C(=O)O (stereo not shown) [ketorolac] | – | – | – | – | – | – | – | – | −0.053 | −0.468 | 0.939 | −0.344 | −0.363 | −0.825 | −0.033 | −0.707 | MTT [1, 9]: −0.563; nucOX (nuOXPHOS transcripts; [9]): −0.072; ROS (reactive oxygen species; [9]): 0.482; GE-HTS (OXPHOS gene expression; [9]): 0.096; Viability (C2C12 myotubes; [9]): −0.773; ΔΨm [2, 9]: 0.136; mitoOX (mtOXPHOS transcripts; [9]): 0.412; cyt c (cytochrome c; [9]): 0.315
CC[C@@]1(O)C[C@H](O[C@H]2C[C@H](N(C)C)[C@H](O)[C@H](C)O2)c2c(cc3c(c2O)C(=O)c2c(O)cccc2C3=O)[C@H]1C(=O)OC [aklavine] | – | – | – | – | – | – | – | – | – | – | – | – | – | – | – | – | MTT [1, 10]: −6.213; nucOX (nuOXPHOS transcripts; [10]): 0.430; ROS (reactive oxygen species; [10]): −2.347; GE-HTS (OXPHOS gene expression; [10]): 0.706; Viability (C2C12 myotubes; [10]): −2.971; ΔΨm [2, 10]: −3.626; mitoOX (mtOXPHOS transcripts; [10]): 1.063; cyt c (cytochrome c; [10]): −5.658

From patent publication US20090143279A1 (priority 2007, published 2009)
